Results from patent US8383094B2, “Hepatitis C virus inhibitors” (Bristol-Myers Squibb Company, priority 2008, dated 2013).
Like-named read-outs stand apart in the source and are kept apart here.

System: HCV 1b genotype
Assay: HCV Replicon assay (HCV-neo replicon cells, wild-type)
Format: cell-based
Details: HCV 1b genotype replicon, read-out: 1b EC50 (in μM or range)
Protocol: An HCV Replicon assay was utilized in the present disclosure, and was prepared, conducted and validated as described in commonly owned PCT/US2006/022197 and in O′Boyle et. al. Antimicrob Agents Chemother, 2005 April; 49(4):1346-53. Assay methods incorporating luciferase reporters have also been used as described (Apath.com).
HCV-neo replicon cells and replicon cells containing mutations in the NS5A region were used to test the currently described family of compounds. The compounds were determined to have more than 10-fold less inhibitory activity on cells containing mutations than wild-type cells. Thus, the compounds of the present disclosure can be effective in inhibiting the function of the HCV NS5A protein and are understood to be as effective in combinations as previously described in application PCT/US2006/022197 and commonly owned WO/04014852. Further, the compounds of the present disclosure can be effective against the HCV 1b genotype. It should also be understood that the compounds of the present disclosure can inhibit multiple genotypes of HCV. […] In one embodiment, compounds of the present disclosure are inhibitory versus 1a, 1b, 2a, 2b, 3a, 4a, and 5a genotypes.

[1] = Hepatitis C virus, range class A-D

O=C(Nc1ccc(C#Cc2ccc(NC(=O)[C@@H]3CCCN3C(=O)OCc3ccccc3)cc2)cc1)C1CC1 [Example D18, Benzyl (2S)-2-((4-((4-((cyclopropylcarbonyl)amino)phenyl)ethynyl)phenyl)carbamoyl)-1-pyrrolidinecarboxylate]
EC50 [1]: 100 to 999 nM

CC(C)OC(=O)N[C@@H](C(=O)N1CCC[C@H]1C(=O)Nc1ccc(C#Cc2ccc(NC(=O)[C@@H]3CCCN3C(=O)[C@H](NC(=O)OC(C)C)c3ccccc3)cc2)cc1)c1ccccc1 [VN57, Diisopropyl (1,2-ethynediylbis(4,1-phenylenecarbamoyl(2S)-2,1-pyrrolidinediyl((1R)-2-oxo-1-phenyl-2,1-ethanediyl)))biscarbamate]
EC50 (range class A-D): < 4.57 nM

O=C(CC1CC1)Nc1ccc(C#Cc2ccc(NC(=O)[C@@H]3CCCN3C(=O)[C@H]3CCCO3)cc2)cc1 [Example D23, N-(4-((4-((cyclopropylacetyl)amino)phenyl)ethynyl)phenyl)-1-((2R)-tetrahydro-2-furanylcarbonyl)-L-prolinamide]
EC50 (Hepatitis C virus): 2600 nM

O=C(Nc1ccc(C#Cc2ccc(NC(=O)[C@@H]3CCCN3C(=O)OCc3ccccc3)cc2)cc1)C1CCC1 [Example D20, Benzyl (2S)-2-((4-((4-((cyclobutylcarbonyl)amino)phenyl)ethynyl)phenyl)carbamoyl)-1-pyrrolidinecarboxylate]
EC50 [1]: 100 to 999 nM

COc1cccc2c(C(=O)N3CCC[C@H]3C(=O)Nc3ccc(C#Cc4ccc(NC(=O)[C@@H]5CCCN5C(C)=O)cc4)cc3)nc(Cl)cc12 [Example D46, (2S)-1-Acetyl-N-(4-((4-((((2S)-1-((3-chloro-5-methoxy-1-isoquinolinyl)carbonyl)-2-pyrrolidinyl)carbonyl)amino)phenyl)ethynyl)phenyl)-2-pyrrolidinecarboxamide]
EC50 [1]: 100 to 999 nM

CC(=O)N[C@@H](C(=O)N1CCC[C@H]1C(=O)Nc1ccc(C#Cc2ccc(NC(=O)[C@@H]3CCCN3C(=O)[C@H](NC(C)=O)c3ccccc3)cc2)cc1)c1ccccc1 [VN26, (2S,2′S)-N,N′-(1,2-ethynediyldi-4,1-phenylene)bis(1-((2R)-2-acetamido-2-phenylacetyl)-2-pyrrolidinecarboxamide)]
EC50 [1]: < 4.57 nM

CC(=O)O[C@@H]1C[C@@H](C(=O)Nc2ccc(C#Cc3ccc(NC(=O)[C@@H]4CCCN4C(C)=O)cc3)cc2)N(C(=O)Cc2ccccc2)C1 [Example D27, (3R,5S)-5-((4-((4-((((2S)-1-Acetyl-2-pyrrolidinyl)carbonyl)amino)phenyl)ethynyl)phenyl)carbamoyl)-1-(phenylacetyl)-3-pyrrolidinyl acetate]
EC50 [1]: 4.57 to 99 nM

CC(=O)N1CCC[C@H]1C(=O)Nc1ccc(C#Cc2ccc(NC(=O)[C@@H]3CCCN3C(=O)Cc3cccnc3)nc2)cc1 [Example D57, (2S)-1-Acetyl-N-(4-((6-((((2S)-1-(3-pyridinylacetyl)-2-pyrrolidinyl)carbonyl)amino)-3-pyridinyl)ethynyl)phenyl)-2-pyrrolidinecarboxamide]
EC50 [1]: 1000 to 10000 nM

O=C(Nc1ccc(C#Cc2ccc(NC(=O)[C@@H]3CCCN3C(=O)Cc3ccccc3)cc2)cc1)C1CC1 [Example D15, N-(4-((4-((cyclopropylcarbonyl)amino)phenyl)ethynyl)phenyl)-1-(phenylacetyl)-L-prolinamide]
EC50 [1]: 100 to 999 nM

CN(C)C1(C(=O)N2CCC[C@H]2C(=O)Nc2ccc(C#Cc3ccc(NC(=O)[C@@H]4CCCN4C(=O)C4(N(C)C)CCc5ccccc54)cc3)cc2)CCc2ccccc21 (stereo partly drawn) [VN41, (2S,2′S)-N,N′-(1,2-ethynediyldi-4,1-phenylene)bis(1-((1-(dimethylamino)-2,3-dihydro-1H-inden-1-yl)carbonyl)-2-pyrrolidinecarboxamide)]
EC50 [1]: < 4.57 nM

O=C(Nc1ccc(C#Cc2ccc(NC(=O)[C@@H]3CCCN3C(=O)CC3CC3)cc2)cc1)[C@@H]1CCCN1C(=O)CC1CC1 [Example D37, (2S,2′S)-N,N′-(1,2-ethynediyldi-4,1-phenylene)bis(1-(cyclopropylacetyl)-2-pyrrolidinecarboxamide)]
EC50 [1]: 4.57 to 99 nM

O=C(Nc1ccc(C#Cc2ccc(NC(=O)[C@@H]3CCCN3C(=O)Cc3ccccc3)cc2)cc1)[C@H]1CCCO1 [Example D17, 1-(Phenylacetyl)-N-(4-((4-(((2R)-tetrahydro-2-furanylcarbonyl)amino)phenyl)ethynyl)phenyl)-L-prolinamide]
EC50 [1]: 100 to 999 nM

CC(=O)N1CCC[C@H]1C(=O)Nc1ccc(C#Cc2ccc(NC(=O)[C@@H]3CCCN3C(=O)Cc3ccccc3)nc2)cc1 [Example D55, (2S)-1-Acetyl-N-(4-((6-((((2S)-1-(phenylacetyl)-2-pyrrolidinyl)carbonyl)amino)-3-pyridinyl)ethynyl)phenyl)-2-pyrrolidinecarboxamide]
EC50 [1]: 100 to 999 nM

O=C(Nc1ccc(C#Cc2ccc(NC(=O)C3CC(=O)N(Cc4ccc(Cl)cc4)C3)cc2)cc1)C1CC(=O)N(Cc2ccc(Cl)cc2)C1 (centres unmarked) [Example D14, N,N′-(1,2-ethynediyldi-4,1-phenylene)bis(1-(4-chlorobenzyl)-5-oxo-3-pyrrolidinecarboxamide)]
EC50 [1]: 1000 to 10000 nM

CCN(C)C(C(=O)N1CCC[C@H]1C(=O)Nc1ccc(C#Cc2ccc(NC(=O)[C@@H]3CCCN3C(=O)C(c3ccccc3)N(C)CC)cc2)cc1)c1ccccc1 (stereo partly drawn) [VN47, (2S,2′S)-N,N′-(1,2-ethynediyldi-4,1-phenylene)bis(1-((ethyl(methyl)amino)(phenyl)acetyl)-2-pyrrolidinecarboxamide)]
EC50 [1]: 4.57 to 99 nM

CC[C@@H](C(=O)N1CCC[C@H]1C(=O)Nc1ccc(C#Cc2ccc(NC(=O)[C@@H]3CCCN3C(=O)[C@H](CC)c3ccccc3)cc2)cc1)c1ccccc1 [VN7, (2S,2′S)-N,N′-(1,2-ethynediyldi-4,1-phenylene)bis(1-((2R)-2-phenylbutanoyl)-2-pyrrolidinecarboxamide)]
EC50 [1]: < 4.57 nM

CCCOC(=O)N[C@@H](C(=O)N1CCC[C@H]1C(=O)Nc1ccc(C#Cc2ccc(NC(=O)[C@@H]3CCCN3C(=O)[C@H](NC(=O)OCCC)c3ccccc3)cc2)cc1)c1ccccc1 [VN56, Dipropyl (1,2-ethynediylbis(4,1-phenylenecarbamoyl(2S)-2,1-pyrrolidinediyl((1R)-2-oxo-1-phenyl-2,1-ethanediyl)))biscarbamate]
EC50 (range class A-D): < 4.57 nM

CC(=O)N1CCC[C@H]1C(=O)Nc1ccc(C#Cc2ccc(NC(=O)[C@@H]3CCCCN3C(=O)OCc3ccccc3)cc2)cc1 [Example D11, Benzyl (2S)-2-((4-((4-((1-acetyl-L-prolyl)amino)phenyl)ethynyl)phenyl)carbamoyl)-1-piperidinecarboxylate]
EC50 (Hepatitis C virus): 590 nM

O=C(Nc1ccc(C#Cc2ccc(NC(=O)[C@@H]3CCCN3C(=O)OCc3ccccc3)cc2)cc1)[C@@H]1CCCN1C(=O)OCc1ccccc1 [Example D1, Dibenzyl(2S,2′S)-2,2′-(1,2-ethynediylbis(4,1-phenylenecarbamoyl))di(1-pyrrolidinecarboxylate)]
EC50 [1]: 4.57 to 99 nM

O=C(Nc1ccc(C#Cc2ccc(NC(=O)[C@@H]3CCCN3C(=O)c3nccc4ccccc34)cc2)cc1)[C@@H]1CCCN1C(=O)c1nccc2ccccc12 [Example D28, (2S,2′S)-N,N′-(1,2-ethynediyldi-4,1-phenylene)bis(1-(1-isoquinolinylcarbonyl)-2-pyrrolidinecarboxamide)]
EC50 [1]: 100 to 999 nM

CCOC(=O)N[C@@H](C(=O)N1CCC[C@H]1C(=O)Nc1ccc(C#Cc2ccc(NC(=O)[C@@H]3CCCN3C(=O)[C@H](NC(=O)OCC)c3ccccc3)cc2)cc1)c1ccccc1 [VN54, Diethyl (1,2-ethynediylbis(4,1-phenylenecarbamoyl(2S)-2,1-pyrrolidinediyl((1R)-2-oxo-1-phenyl-2,1-ethanediyl)))biscarbamate]
EC50 (Hepatitis C virus): 0.018 nM

O=C(Nc1ccc(C#Cc2ccc(NC(=O)[C@@H]3CCCN3C(=O)[C@@H](c3ccccc3)N3CCCC3)cc2)cc1)[C@@H]1CCCN1C(=O)[C@@H](c1ccccc1)N1CCCC1 [VN12, (2S,2′S)-N,N′-(1,2-ethynediyldi-4,1-phenylene)bis(1-((2R)-2-phenyl-2-(1-pyrrolidinyl)acetyl)-2-pyrrolidinecarboxamide)]
EC50 [1]: < 4.57 nM

CC(=O)N1CCC[C@H]1C(=O)Nc1ccc(C#Cc2ccc(NC(=O)C3CC(=O)N(CCc4cccs4)C3)cc2)cc1 (stereo partly drawn) [Example D9, 1-Acetyl-N-(4-((4-(((5-oxo-1-(2-(2-thienyl)ethyl)-3-pyrrolidinyl)carbonyl)amino)phenyl)ethynyl)phenyl)-L-prolinamide]
EC50 (Hepatitis C virus): 2420 nM

COc1cccc2c(C(=O)N3CCC[C@H]3C(=O)Nc3ccc(C#Cc4ccc(NC(=O)[C@@H]5CCCN5C(=O)Cc5cccnc5)cc4)cc3)nc(Cl)cc12 [Example D45, (2S)-1-((3-Chloro-5-methoxy-1-isoquinolinyl)carbonyl)-N-(4-((4-((((2S)-1-(3-pyridinylacetyl)-2-pyrrolidinyl)carbonyl)amino)phenyl)ethynyl)phenyl)-2-pyrrolidinecarboxamide]
EC50 [1]: 100 to 999 nM

CCN(C)C(C(=O)N1CCC[C@H]1C(=O)Nc1ccc(C#Cc2ccc(NC(=O)[C@@H]3CCCN3C(=O)C(c3ccccc3)N(C)CC)cc2)cc1)c1ccccc1 (single isomer, unassigned) [VN36]
EC50 [1]: < 4.57 nM

CC(=O)N1CCC[C@H]1C(=O)Nc1ccc(C#Cc2ccc(NC(=O)C3CC(=O)N(Cc4ccc(Cl)cc4)C3)cc2)cc1 (stereo partly drawn) [Example D13, 1-Acetyl-N-(4-((4-(((1-(4-chlorobenzyl)-5-oxo-3-pyrrolidinyl)carbonyl)amino)phenyl)ethynyl)phenyl)-L-prolinamide]
EC50 [1]: 1000 to 10000 nM
